Data on six compounds can be found in patent US6294580A, “Substituted 4-hydroxy-phenylalcanoic acid derivatives with agonist activity to PPAR-gamma” (Glaxo Wellcome Inc., priority 1996, dated 2001).

Like-named read-outs stand apart in the source and are kept apart here.

Experiment [1] deals with PPARg. Kind of experiment: PPARgamma Transient Cotransfection Assay. Type of experiment: cell-based.
Experiment [2] deals with db/db mice. Kind of experiment: In vivo Evaluation in db/db mice (plasma glucose). The note with it: 5 mg/kg b.i.d. oral gavage, fourteen days. On the set-up: species or system mouse.
Protocol: In vivo Evaluation: Experiments were performed on db/db mice (n=40-48), approximately 60 day old, divided into either vehicle or treatment groups. From each group 8-12 animals were placed in Nalgene metabolic cages, 2 per cage. The remaining animals are housed in standard rack cages; 3-4 per cage. Test compounds were dissolved in an appropriate vehicle. Animals were administered either the vehicle or the compound (dose=5 mg/kg) delivered at 5 ml/kg, b.i.d., via oral gavage for fourteen days. Daily measurements were made of mice housed in metabolic cages to determine consumption of food and water, urine output and urinary glucose excretion and changes in body weight. Animals housed in rack cages were weighed approximately every four days to monitor changes in body weight. An equal number of animals from each group were sampled on days 0, 4, 7 and 14. Mice were anesthetized with isolflurane, blood samples were obtained by cardiac puncture and analyzed to determine plasma levels of glucose, insulin, total cholesterol, triglycerides and non-esterified free fatty acids (NEFA's).
Experiment [3] deals with T1, hPPARgamma (Homo sapiens, UniProt P37231).
T1 construct: 10x-histidine tag (N); made in house; host or cells: E. coli
T1 sequence (P37231 195-475 isoform P37231-2): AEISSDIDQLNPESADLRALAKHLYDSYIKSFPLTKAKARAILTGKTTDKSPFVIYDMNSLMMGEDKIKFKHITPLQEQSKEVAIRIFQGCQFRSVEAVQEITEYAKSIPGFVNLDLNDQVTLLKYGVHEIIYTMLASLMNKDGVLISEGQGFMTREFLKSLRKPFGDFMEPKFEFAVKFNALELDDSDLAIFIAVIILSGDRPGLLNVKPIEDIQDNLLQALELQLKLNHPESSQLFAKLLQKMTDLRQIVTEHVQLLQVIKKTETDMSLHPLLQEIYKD
Kind of experiment: hPPARgamma Ligand Binding Assay. The note with it: PPARg Ki, competition with [3H]-BRL 49,653, room temperature 2 hrs.

The subject of experiment [4] is pre-adipocyte cell lines. The note with it: treatment of pre-adipocyte cell lines; cited from earlier work.
Experiment [5] concerns human patients. The note with it: patients with impaired glucose tolerance, NIDDM; cited from earlier work.
[6] abbreviates: read-out: PPARg EC50, CAT reporter.
[7] abbreviates: CAT reporter, read-out: PPARg EC50.

In the case of `CN(CCOc1ccc(C[C@H](Nc2ccccc2C(=O)c2ccccc2)C(=O)O)cc1)c1ccccn1` [Example 12, 2(S)-(2-benzoyl-phenylamino)-3-{4-[2-(methyl-pyridin-2-yl-amino)-ethoxy]-phenyl}-propionic acid], the EC50 in experiment [1] (setting [6]) was 0.005 µM. For the same compound, in experiment [2], the “% lowering of plasma glucose” value was found to be 58%. Regarding `CN(CCOc1ccc(CC(Nc2ccccc2C(=O)c2ccccc2)C(=O)O)cc1)c1nc2ccccc2o1` (centres unmarked) [Example 16, 3-{4-[2-(benzoxazol-2-yl-methyl-amino)-ethoxy]-phenyl}-2-(2-benzoyl-phenylamino)-propionic acid], in experiment [1] (setting [7]), the EC50 was 0.001 µM. The compound also displayed a Ki in experiment [3] of 0.02 µM. Moreover, in experiment [2], the “% lowering of plasma glucose” value worked out at 63%. Turning to `Cc1oc(-c2ccccc2)nc1CCOc1ccc(C[C@H](Nc2ccccc2C(=O)c2ccccc2)C(=O)O)cc1` [Example 29, 2(S)-(2-Benzoyl-phenylamino)-3-{4-[2-(5-methyl-2-phenyl-oxazol-4-yl)ethoxy]-phenyl}-propionic acid], the EC50 in experiment [1] (setting [6]) was found to be 0.0002 µM. Also, in experiment [2], the “% lowering of plasma glucose” value is recorded as 70%. Consider `O=C(c1ccccc1)c1ccccc1NC(Cc1ccc(OCCc2cccnc2)cc1)C(=O)O` (centres unmarked) [Example 123, 2-(2-Benzoyl-phenylamino)-3-[4-(2-pyridin-3-yl-ethoxy]-phenyl]-propionic acid], for which the EC50 in experiment [1] (setting [7]) worked out at 0.62 µM. The Ki in experiment [3] stood at 0.28 µM. Consider `CCc1ccc(CCOc2ccc(CC3SC(=O)NC3=O)cc2)nc1` (centres unmarked) [pioglitazone], for which the “expression of adipocyte-specific genes aP2 and adipsin and glucose transporter proteins GLUT-1 and GLUT-4” value in experiment [4] is “increased expression of the adipocyte-specific genes aP2 and adipsin as well as the glucose transporter proteins GLUT-1 and GLUT-4”. On to `Cc1c(C)c2c(c(C)c1O)CCC(C)(COc1ccc(CC3SC(=O)NC3=O)cc1)O2` (centres unmarked) [troglitazone], for which the “effects in human patients (insulin sensitivity, lipid and insulin levels)” value in experiment [5] is recorded as “these same beneficial effects in human patients”.

What is called EC50 is the concentration that produces a half-maximal response. As usually defined, the Ki is a measure of affinity in units of concentration, obtained from inhibition or displacement. Read a high Ki as lower affinity.
